From EP0002051A1, “Use of butoxybenzylhyoscyamine bromide in pharmaceutical compositions against deafness and tinnitus” (Eisai Co., Ltd., priority 1977, dated 1979)

Legend:
hearing power [1] = experiment: clinical test: audiometry just after intravenous injection (30 minutes); type: in vivo; conditions: 5o patients
Experimental: (§1) Among patients who came into the hospital during the period of from September 1976 to September 1977 while complaining of deafness or tinnitus, those meeting the following conditions were chosen.
(§2) Butoxybenzylhyoscyamine bromide was administered to 74 patients meeting the above conditions.
(§3) In principle, a mixture of 4 mg of butoxybenzylhyoscyamine bromide with 2o % glucose was intravenously injected at first, and then, two capsules, each containing 5 mg of butoxybenzylhyoscyamine bromide, was administered 3-times per day (namely, 6 capsules being administered as a whole per day). The administration of capsules was conducted for one week.
(§4) • (a) The standard autiometry (125 - 8ooo Hz, air and bone condition) was carried out before the injection. • (b) The same test was conducted 3o minutes after the injection. In patients complaining of tinnitus, the change of the degree of tinnitus was examined. • (c) The audiometry was carried out on the 7th day from the start of the oral administration. If the patients felt changes of hearing power or tinnitus during this period, the audiometry was appropriately conducted. • (d) During the oral administraion period of 7 days, desease conditions such as (1) hearing power (2) tinnitus, (3) other ear symptoms and (4) side effects were recorded in examination cards.
(§5) • 1. Change of hearing power just after injection (3o minutes: • With respect to 5o patients, the audiometry was carried out just after the intravenous injection of butoxybenzylhyoscyamine bromide (3o minutes after the injection) to obtain results shown in table 2. Sounds of 25o Hz, 1000 Hz and 8000 Hz were chosen as typical instances of sounds of the low-tone, medium-tone and high-tone regions, respectively, and changes of the hearing power to these sounds were examined. The change within a range of + 5 dB was judged as "no change" and the change exceeding 5 dB was judged as "improvement" or "worsening". [formula] As will be apparent from the results shown in table 2, the highest improvement was 2o dB (1ooo Hz) but in many cases, the improvement was up to 15 dB. The improvement was higher in the order of the low-tone region (18%), the high-tone region (12 %) and the mediom-tone region (8%) and the average improvement of the hearing power after the intravenous injection was about 13 %. • 2. Improvement of Tinnitus: With respect to 41 patients complaining of tinnitus, the change of degree of tinnitus was examined after one week's oral administration to obtain results shown belof in table 3. [formula] As will be apparent from the results shown in table 3, the agent was effective in 15 patients (36%), though the agent of the present invention was ineffective in 24 patients (59%) or the agent worsened the state in 2 patients (5%). • 3. Change of hearing power after administration: Changes of the hearing power were examined during a period of 1 year and three months at longest after one week's administration. With respect to cases where high improving effects were attained, the clinical history will be described.

male and female rats = experiment: chronic toxicity, continuous administration for 25 weeks; type: in vivo
Experimental: Toxicity of butoxybenzylhyoscyamine bromide in detail: • (A) The acute toxicity, LDSo(mg/kg), is as shown in table 1 [formula] • (B) The compound was administered in an amount of 3.2, 8.0 or 2o mg/kg per day to male and female rats conti- nously during 25 weeks to determine the chronic toxicity.

tinnitus = experiment: clinical test: change of degree of tinnitus after one week's oral administration; type: in vivo; conditions: 41 patients complaining of tinnitus
Experimental: as §1, §2, §3, §4, §5

hearing power [2] = experiment: clinical test: change of hearing power after administration (case histories, audiograms); type: in vivo, patients
Experimental: as §1, §3, §4, §5

[3] = rats, 3.2, 8.0 or 2o mg/kg per day

## CCCCOc1ccc(C[N+]2(C)C3CCC2CC(OC(=O)C(CO)c2ccccc2)C3)cc1 (stereo not shown) [butoxybenzylhyoscyamine bromide, N-(p-n-butoxybenzyl)-hyoscyaminium bromide]
Hearing power [1]; 3o minutes after intravenous injection of 4 mg
  improvement of hearing power in many cases: up to 15 dB
Hearing power [1]; 3o minutes after intravenous injection of 4 mg, 1ooo Hz
  highest improvement of hearing power: 2o
Hearing power [1]; 3o minutes after intravenous injection, 25o Hz, change exceeding 5 dB judged as improvement
  improvement, low-tone region: 18%
Hearing power [1]; 3o minutes after intravenous injection, 1000 Hz, change exceeding 5 dB judged as improvement
  improvement, medium-tone region: 8%
Hearing power [1]; 3o minutes after intravenous injection, 8000 Hz, change exceeding 5 dB judged as improvement
  improvement, high-tone region: 12%
Hearing power [1]; average of low-, medium- and high-tone regions
  average improvement of the hearing power after the intravenous injection: about 13%
Male and female rats; [3]
  change in organs (chronic toxicity): no substantial change was observed in any organ
  tests of blood and urine (chronic toxicity): particular changes or disorders were not observed at all
Male and female rats; rats, daily administered amount 2o mg/kg
  changes observed (chronic toxicity): inactive motion, mydriasis, control of increase of the body weight, storage of a small quantity of abdominal dropsy and formation of false membranes on the liver and spleen
tinnitus
  tinnitus: effective, number of patients: 15 patients
  tinnitus: effective, share of patients: 36%
  tinnitus: ineffective, number of patients: 24 patients
  tinnitus: ineffective, share of patients: 59%
  tinnitus: state worsened, number of patients: 2 patients
  tinnitus: state worsened, share of patients: 5%
Hearing power [2]; person with the improvement of the hearing power
  tinnitus, Case 2: Tinnitus disappeared
Hearing power [2]; person, 3o minutes after intravenous injection
  hearing loss, Case 6: the hearing loss was extremely reduced
Hearing power [2]; person, at termination of the second oral administration
  hearing power after second 1 week oral administration, Case 4: further improved in the low-tone region
Hearing power [2]; person, fixed perceptive deafness, one intravenous injection then 1 week oral, after 3 weeks
  hearing power restored on the average, Case 4: about 1o
Hearing power [2]; person, fixed perceptive deafness, one intravenous injection then 1 week oral, after 3 weeks, 2 KHz
  hearing power restored at maximum, Case 4: 2o
Hearing power [2]; person, fixed sudden deafness of right ear, repeated intravenous injection
  change of hearing power, Case 3: remarkably improved in the low-tone region
Hearing power [2]; person, left ear, hearing loss about 5o dB before, one week oral administration with S.G.B.
  hearing loss after about 1 month, Case 2: 1o
Hearing power [2]; person, left ear, hearing loss about 5o dB before, oral administration while conducting S.G.B.
  hearing power after one week's administration, Case 2: returned to the level equal to the level at the first examination
Hearing power [2]; person, perceptive deafness of left ear, oral, 3 weeks, 6 capsules per day
  change of hearing power, Case 5: gradually recovered but was not returned to the normal level
Hearing power [2]; person, perceptive deafness, six capsules of 5 mg per day
  change of hearing power, Case 1: the improvement was observed in the low-tone region after the administration
